Values quoted from earlier work in patent publication US20170072072A1, “PH SENSITIVE FLUORESCENT COMPOUNDS AND METHODS FOR TUMOR DETECTION” (THE METHODIST HOSPITAL SYSTEM, priority 2014, published 2017).

Conditions: in DMSO

- quantum yield Φ of reference: 0.106
SMILES: CC1(C)C(/C=C/C=C/C=C/C=C2\N(CCCCS(=O)(=O)O)c3ccc4ccccc4c3C2(C)C)=[N+](CCCCS(=O)(=O)[O-])c2ccc3ccccc3c21 [indocyanine green]
